Literature values, collected in patent publication US20110251239A1, “COMBINATION THERAPY FOR THE TREATMENT OF DEMENTIA” (EISAI INC., priority 2010, published 2011).

Key:
[1] = tested on: cytochrome P450 isozymes CYP1A2, CYP2C9, CYP2E1 and CYP3A4/5
[2] = tested on: CYP450 enzymes (CYP1A2, -2A6, -2C9, -2D6, -2E1, -3A4)

SMILES: CC12CC3CC(C)(C1)CC(N)(C3)C2 [memantine, 1-amino-3,5-dimethyl adamantane]
- induction of cytochrome P450 isozymes [1]: does not induce
- inhibition of CYP450 enzymes [2]: minimal inhibition
